Test results published in patent US20060069132A1, “Azolecarboxamide herbicides” (priority 2004, published 2006).
Where two headings read alike, the source gives them in different places.

Assays:
[1] = tested on: barnyardgrass; assay: Test B pre-/postemergence herbicide test; format: in vivo, Echinochloa crus-galli; settings: for pest or weed control at 500 g/ha: 500 g ai/ha
Summary of the method: (§1)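 Pre: seeds sown, then sprayed. Post: 1–4-leaf plants (2–18 cm) sprayed at the same time. Paddy: flooded, treated at 2-leaf stage. Formulation: non-phytotoxic solvent with surfactant. Greenhouse 13–15 days; visual 0–100 score relative to controls.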

[2] = tested on: Surinam grass; assay: Test B pre-/postemergence herbicide test; format: in vivo, Urochloa decumbens; settings: for pest or weed control at 500 g/ha: 500 g ai/ha
Summary of the method: (§2)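 Flooded paddy rice and barnyardgrass were treated at the 2-leaf stage; upland plantings received compound either on sown seed or on 1- to 4-leaf seedlings. All were kept 13–15 days in a greenhouse and scored visually, 0–100, relative to untreated plants.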

[3] = tested on: cocklebur; assay: Test B pre-/postemergence herbicide test; format: in vivo, Xanthium strumarium; settings: for pest or weed control at 500 g/ha: 500 g ai/ha
Summary of the method: as §1

[4] = tested on: corn; assay: Test B pre-/postemergence herbicide test; format: in vivo, Zea mays
Summary of the method: as §2

[5] = tested on: large crabgrass; assay: Test B pre-/postemergence herbicide test; format: in vivo, Digitaria sanguinalis; settings: for pest or weed control at 500 g/ha: 500 g ai/ha
Summary of the method: as §2

[6] = tested on: lambsquarters; assay: Test B pre-/postemergence herbicide test; format: in vivo, Chenopodium album; settings: for pest or weed control at 500 g/ha: 500 g ai/ha
Summary of the method: as §2

[7] = tested on: morningglory; assay: Test B pre-/postemergence herbicide test; format: in vivo, Ipomoea coccinea; settings: for pest or weed control at 500 g/ha: 500 g ai/ha
Summary of the method: as §1

[8] = tested on: velvetleaf; assay: Test B pre-/postemergence herbicide test; format: in vivo, Abutilon theophrasti
Summary of the method: as §2

[9] = tested on: blackgrass; assay: Test B postemergence herbicide test; format: in vivo, Alopecurus myosuroides; settings: Alopecurus myosuroides, post-emergence, 336 h, read-out: Blackgrass plant response rating
Summary of the method: (§3)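 Read-out: visual comparison with controls, scored 0 to 100, where 100 means complete control and 0 no effect. Formulated chemicals were applied postemergence to plants 2–18 cm tall (1- to 4-leaf), or to flooded-paddy plants at the 2-leaf stage, then held 13 to 15 days under glass.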

[10] = tested on: wheat; assay: Test B postemergence herbicide test; format: in vivo, Triticum aestivum; settings: Triticum aestivum, post-emergence, 336 h, read-out: Wheat plant response rating
Summary of the method: (§4)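 Postemergence plants were sprayed with formulated test chemicals at 2 to 18 cm height (1- to 4-leaf stage); paddy species were grown to the 2-leaf stage. After 13 to 15 days in a greenhouse, injury was rated visually against untreated controls on a 0–100 scale (0 = no effect, 100 = complete control).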

[11] = tested on: wild oat; assay: Test B postemergence herbicide test; format: in vivo, Avena fatua; settings: Avena fatua, post-emergence, 336 h, read-out: Oat, Wild plant response rating
Summary of the method: as §4

[12] = tested on: rice; assay: Test B flooded paddy test; format: in vivo, Oryza sativa; settings: Oryza sativa, 336 h, 1000 g ai/ha, scale 0 to 100 (0 no effect, 100 complete control), read-out: Rice plant response rating
Summary of the method: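 After treating 2-leaf paddy plants or 2–18 cm postemergence plants (1 to 4 leaves) with formulated chemical, researchers kept them in a greenhouse for 13–15 days. Effects were judged visually versus controls: 0 indicates none, 100 total control.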

[13] = tested on: small flower umbrella sedge; assay: Test B flooded paddy test; format: in vivo, Cyperus difformis; settings: Cyperus difformis, 336 h, 1000 g ai/ha, scale 0 to 100 (0 no effect, 100 complete control), read-out: Sedge, Umbrella plant response rating
Summary of the method: as §3

[14] = tested on: ducksalad; assay: Test B flooded paddy test; format: in vivo, Heteranthera limosa; settings: Heteranthera limosa, 336 h, 1000 g ai/ha, scale 0 to 100 (0 no effect, 100 complete control), read-out: Ducksalad plant response rating
Summary of the method: as §3

[15] = tested on: barnyardgrass; assay: Test B flooded paddy test; format: in vivo, Echinochloa crus-galli; settings: Echinochloa crus-galli, 336 h, 1000 g ai/ha, scale 0 to 100 (0 no effect, 100 complete control), read-out: Barnyardgrass plant response rating
Summary of the method: as §3

[16] = 125 g ai/ha, 0 is no effect, 100 is complete control, preemergence
[17] = 125 g ai/ha, visual rating, scale 0 (no effect) to 100 (complete control)
[18] = postemergence, 500 g ai/ha, scale 0 to 100, 0 is no effect, 100 is complete control

In the case of `CCOC(=O)c1cccc(NC(=O)c2nn(C(C)(C)C)nc2CC)c1` [Compound 360, ethyl 3-[[[2-(1,1-dimethylethyl)-5-ethyl-2H-1,2,3-triazol-4-yl]carbonyl]amino]benzoate], the “Plant response rating (0 to 100 scale), Barnyardgrass” value [1, 16] is reported as 10, the pest or weed control at 125 g/ha ([1]; Echinochloa crus-galli, post-emergence, 125 g ai/ha, visual rating, scale 0 (no effect) to 100 (complete control), read-out: Barnyardgrass plant response rating) is reported as 0% and the pest or weed control at 500 g/ha ([1]; Echinochloa crus-galli, post-emergence, postemergence, scale 0 to 100, 0 is no effect, 100 is complete control, read-out: Barnyardgrass plant response rating) is reported as 30%. The pest or weed control at 500 g/ha ([1]; Echinochloa crus-galli, pre-emergence, visual rating, 0 = no effect, 100 = complete control, read-out: Plant response rating, Barnyardgrass) was 40%, the “Plant response rating (0 to 100 scale), Surinam Grass” value [2, 16] was 20 and the pest or weed control at 125 g/ha ([2]; Urochloa decumbens, post-emergence, 125 g ai/ha, visual rating, scale 0 (no effect) to 100 (complete control), read-out: Surinam Grass plant response rating) was 10%. The pest or weed control at 500 g/ha ([2]; Urochloa decumbens, post-emergence, postemergence, scale 0 to 100, 0 is no effect, 100 is complete control, read-out: Surinam Grass plant response rating) was 30%, the pest or weed control at 500 g/ha ([2]; Urochloa decumbens, pre-emergence, visual rating, 0 = no effect, 100 = complete control, read-out: Plant response rating, Surinam Grass) was 50% and the “Plant response rating (0 to 100 scale), Cocklebur” value [3, 16] was 0. For the same compound, the pest or weed control at 125 g/ha ([3]; Xanthium strumarium, post-emergence, 125 g ai/ha, visual rating, scale 0 (no effect) to 100 (complete control), read-out: Cocklebur plant response rating) was 10%, the pest or weed control at 500 g/ha ([3]; Xanthium strumarium, post-emergence, postemergence, scale 0 to 100, 0 is no effect, 100 is complete control, read-out: Cocklebur plant response rating) was 20% and the pest or weed control at 500 g/ha ([3]; Xanthium strumarium, pre-emergence, visual rating, 0 = no effect, 100 = complete control, read-out: Plant response rating, Cocklebur) was 0%. For the same compound, the “Plant response rating (0 to 100 scale), Corn” value [4, 16] was 10, the plant injury at 125 g/ha ([4]; Zea mays, post-emergence, 125 g ai/ha, visual rating, scale 0 (no effect) to 100 (complete control), read-out: Corn plant response rating) was 10% and the plant injury at 500 g/ha ([4]; Zea mays, post-emergence, postemergence, 500 g ai/ha, scale 0 to 100, 0 is no effect, 100 is complete control, read-out: Corn plant response rating) was 20%. The Corn plant response rating (crop injury, 0 = no effect, 100 = complete kill) at 500 g/ha ([4]; Zea mays, pre-emergence, 500 g ai/ha, visual rating, 0 = no effect, 100 = complete control) was 40%, the “Plant response rating (0 to 100 scale), Crabgrass, Large” value [5, 16] was 40 and the pest or weed control at 125 g/ha ([5]; Digitaria sanguinalis, post-emergence, 125 g ai/ha, visual rating, scale 0 (no effect) to 100 (complete control), read-out: Crabgrass, Large plant response rating) was 10%. For the same compound, the pest or weed control at 500 g/ha ([5]; Digitaria sanguinalis, post-emergence, postemergence, scale 0 to 100, 0 is no effect, 100 is complete control, read-out: Crabgrass, Large plant response rating) was 20%, the pest or weed control at 500 g/ha ([5]; Digitaria sanguinalis, pre-emergence, visual rating, 0 = no effect, 100 = complete control, read-out: Plant response rating, Crabgrass, Large) was 80% and the “Plant response rating (0 to 100 scale), Lambsquarters” value [6, 16] was 0. The pest or weed control at 125 g/ha ([6]; Chenopodium album, post-emergence, 336 h, 125 g ai/ha, visual rating, scale 0 (no effect) to 100 (complete control), read-out: Lambsquarters plant response rating) was 0%, the pest or weed control at 500 g/ha ([6]; Chenopodium album, post-emergence, 336 h, postemergence, scale 0 to 100, 0 is no effect, 100 is complete control, read-out: Lambsquarters plant response rating) was 20% and the pest or weed control at 500 g/ha ([6]; Chenopodium album, pre-emergence, 336 h, visual rating, 0 = no effect, 100 = complete control, read-out: Plant response rating, Lambsquarters) was 40%. For the same compound, the “Plant response rating (0 to 100 scale), Morningglory” value [7, 16] was 0, the pest or weed control at 125 g/ha ([7]; Ipomoea, post-emergence, 336 h, 125 g ai/ha, visual rating, scale 0 (no effect) to 100 (complete control), read-out: Morningglory plant response rating) was 0% and the pest or weed control at 500 g/ha ([7]; Ipomoea, post-emergence, 336 h, postemergence, scale 0 to 100, 0 is no effect, 100 is complete control, read-out: Morningglory plant response rating) was 10%. The pest or weed control at 500 g/ha ([7]; Ipomoea, pre-emergence, 336 h, visual rating, 0 = no effect, 100 = complete control, read-out: Plant response rating, Morningglory) was 10%, the “Plant response rating (0 to 100 scale), Velvetleaf” value [8, 16] was 20 and the pest or weed control at 125 g/ha ([8]; Abutilon theophrasti, post-emergence, 336 h, 125 g ai/ha, visual rating, scale 0 (no effect) to 100 (complete control), read-out: Velvetleaf plant response rating) was 40%. It also gave a pest or weed control at 500 g/ha ([8]; Abutilon theophrasti, post-emergence, 336 h, postemergence, 500 g ai/ha, scale 0 to 100, 0 is no effect, 100 is complete control, read-out: Velvetleaf plant response rating) of 50%, a pest or weed control at 125 g/ha [9, 17] of 30% and a pest or weed control at 500 g/ha [9, 18] of 50%. For the same compound, the plant injury at 125 g/ha [10, 17] was 30%, the plant injury at 500 g/ha [10, 18] was 40% and the pest or weed control at 125 g/ha [11, 17] was 40%. The pest or weed control at 500 g/ha [11, 18] was 60%, the plant injury at 1000 g/ha [12] was 50% and the pest or weed control at 1000 g/ha [13] was 90%. It also gave a pest or weed control at 1000 g/ha [14] of 70% and a pest or weed control at 1000 g/ha [15] of 40%.
